Source: PMC9699089 (Pathogens, 2022)

Key:
[1] = system: Plasmodium falciparum CQ-resistant strain W2; experiment: In vitro antiplasmodial activity, SYBR Green I fluorescence-based method, strain W2; format: cell-based; conditions: CQ-resistant strain W2, 48 h incubation, mean of three independent experiments, read-out: P. falciparum Strains IC50 Values W2
Protocol: (§1) The in vitro antiplasmodial activities were tested over concentrations ranging from 39 nM to 40 µM against culture-adapted Plasmodium falciparum reference strains 3D7 and W2. […] These two strains are obtained from the collection of the National Museum of Natural History (Paris, France). The parasites were cultivated in RPMI medium (Sigma Aldrich, Lyon, France) supplemented with 0.5% Albumax I (Life Technologies Corporation, Paisley, UK), hypoxanthine (Sigma Aldrich), and gentamicin (Sigma Aldrich) with human erythrocytes and were incubated at 37 °C in a candle jar, as described previously. The P. falciparum drug susceptibility test was carried out in 96-well flat bottom sterile plates in a final volume of 250 µL. After 48 h incubation period with the drugs, quantities of DNA in treated and control cultures of parasites in human erythrocytes were quantified using the SYBR Green I (Sigma Aldrich) fluorescence-based method. Briefly, after incubation, plates were frozen at -20 °C until use. Plates were then thawed for 2 h at room temperature, and 100 µL of each homogenized culture was transferred to a well of a 96-well flat bottom sterile black plate (Nunc, Inc.) that contained 100 µL of the SYBR Green I lysis buffer (2xSYBR Green, 20 mM Tris base pH 7.5, 5 mM EDTA, 0.008% w/v saponin, 0.08% w/v Triton X-100). […] Plates were incubated for 1 h at room temperature and then read on a fluorescence plate reader (Tecan, Austria) using excitation and emission wavelengths of 485 and 535 nm, respectively.

[2] = system: human duplex sequence FdxT; experiment: FRET melting assay, duplex control FdxT; format: binding; conditions: compound 2 μM, oligonucleotide 0.2 μM, K+ conditions
Protocol: (§2) These were performed with dual-labeled oligonucleotides mimicking the Plasmodium telomeric sequences FPf1T [FAM-5′(GGGTTTA)3-GGG3′-TAMRA] and FPf8T [FAM-5′(GGGTTCA)3GGG3′-TAMRA], the Trypanosoma 9 and 11 chromosomic sequence FTrypBT (also named FEBR1T) [FAM-5′[…]3′-TAMRA], the human telomeric sequence F21T [FAM-(GGGTTA)3-GGG3′-TAMRA] and the human duplex sequence FdxT [FAM5′-[…]-hexaethyleneglycol-[…]3′-TAMRA] [27, 31, 47]. The oligonucleotides were pre-folded in 10 mM lithium cacodylate buffer (pH 7.2), with 10 mM KCl and 90 mM LiCl (K^+ condition). The FAM emissions were recorded at 516 nm using a 492-nm excitation wavelength in the absence and presence of a single compound as a function of temperature (25 to 95 °C) in 96-well microplates using a Stratagene MX3000P real-time PCR device at a rate of 1 °C∙min-1. Data were normalized between 0 and 1, and the required temperature for half-denaturation of oligonucleotides corresponding to the emission value of 0.5 was taken as the Tm. Each experiment was performed in duplicate with 0.2 µM of labeled oligonucleotide and 2 µM of compound under K^+ condition. For each compound, three independent experiments were carried out.

[3] = system: Plasmodium telomeric sequence FPf1T G-quadruplex; experiment: FRET melting assay, FPf1T; format: binding, Plasmodium falciparum; conditions: compound 2 μM, oligonucleotide 0.2 μM, K+ conditions
Protocol: as §2

[4] = system: Plasmodium telomeric sequence FPf8T G-quadruplex; experiment: FRET melting assay, FPf8T; format: binding, Plasmodium falciparum; conditions: compound 2 μM, oligonucleotide 0.2 μM, K+ conditions
Protocol: as §2

[5] = system: T. brucei brucei AnTat 1.9; experiment: In vitro antitrypanosomal activity, Alamar Blue assay; format: cell-based, Trypanosoma brucei brucei; conditions: Trypanosoma brucei, slender bloodstream trypomastigotes, AnTat 1.9 strain; mean +/- SD of three independent experiments; read-out: Trypanosoma brucei brucei IC50 Values Trypanos Antat 1.9
Protocol: The effects of the tested compounds on the growth of T. brucei brucei were assessed using an Alamar Blue® assay described by Räz et al. T. brucei brucei AnTat 1.9 ([…], Belgium) was cultured in MEM with Earle's salts, supplemented according to the protocol of Baltz et al. […] All doses were tested in duplicate. Appropriate controls treated with solvents 0.9% NaCl or DMSO or with suramin, pentamidine, eflornithine, and fexinidazole (reference drugs purchased from Sigma Aldrich and Fluorochem, UK) were added to each set of experiments. After 69 h incubation period at 37 °C, 10 μL of the viability marker Alamar Blue (Fisher) was added to each well, and the plates were incubated for 5 h. The plates were read in a PerkinElmer ENSPIRE (Germany) microplate reader using an excitation wavelength of 530 nm and an emission wavelength of 590 nm.

[6] = system: L. donovani (MHOM/IN/00/DEVI) promastigotes; experiment: In vitro antileishmanial activity on promastigotes, MTT assay; format: cell-based; conditions: Leishmania donovani, 72 h incubation, mean +/- SD of three independent experiments
Protocol: L. donovani (MHOM/IN/00/DEVI) used in this study was provided by the CNR Leishmania (Montpellier, France). The effects of the tested compounds on the growth of L. donovani (MHOM/IN/00/DEVI) promastigotes were assessed by MTT assay. Briefly, promastigotes in log-phase in Schneider’s medium supplemented with 20% fetal calf serum (FCS), 2 mM L-glutamine and antibiotics (100 U/mL penicillin and 100 µg/mL streptomycin), were incubated at an average density of 10^6 parasites/mL in sterile 96-well plates with various concentrations of compounds previously dissolved in DMSO (final concentration less than 0.5% v/v), in duplicate. […] Duplicate assays were performed for each sample. After the 72 h incubation period at 27 °C, parasite metabolic activity was determined. Each well was microscopically examined for precipitate formation. To each well was added 10 µL of 10 mg/mL MTT [3-(4,5-dimethylthiazol-2-yl)-2,5-diphenyltetrazolium bromide)] solution followed by 4 h incubation time. The enzyme reaction was stopped by addition of 100 µL of 50% isopropanol/10% sodium dodecyl sulfate. Plates were vigorously shaken (300 rpm) for 10 min, and the absorbance was measured at 570 nm with 630 nm as reference wavelength in a BIOTEK ELx808 Absorbance Microplate Reader (Agilent Technologies, Les Ulis, France). […] IC50 of the parasite’s growth (half maximal inhibitory concentration or IC50 values) were then calculated from the obtained experimental results using a previously described regression program. IC50 values were calculated from three independent experiments.

[7] = system: human telomeric sequence F21T G-quadruplex; experiment: FRET melting assay, F21T; format: binding; conditions: compound 2 μM, oligonucleotide 0.2 μM, K+ conditions
Protocol: as §2

[8] = system: Plasmodium falciparum CQ-sensitive strain 3D7; experiment: In vitro antiplasmodial activity, SYBR Green I fluorescence-based method, strain 3D7; format: cell-based; conditions: CQ-sensitive strain 3D7, 48 h incubation, mean of three independent experiments, read-out: P. falciparum Strains IC50 Values 3D7
Protocol: as §1

[9] = system: Trypanosoma 9 and 11 chromosomic sequence FTrypBT (FEBR1T) G-quadruplex; experiment: FRET melting assay, FtrypBT; format: binding, Trypanosoma brucei brucei; conditions: compound 2 μM, oligonucleotide 0.2 μM, K+ conditions
Protocol: as §2

[10] = Cytotoxicity evaluation, MTT assay; format: cell-based, human; conditions: human
Protocol: These cells are a commonly used human hepatocarcinoma-derived cell line that has characteristics similar to those of primary hepatocytes. These cells express many hepatocyte-specific metabolic enzymes, thus enabling the cytotoxicity of tested product metabolites to be evaluated. […] Duplicate assays were performed for each sample. Each well was microscopically examined for precipitate formation before the medium was aspirated from the wells. After aspiration, 100 µL of MTT solution (0.5 mg/mL in medium without FCS) were then added to each well. […] The MTT solution was removed, and DMSO (100 µL) was added to dissolve the resulting blue formazan crystals. Plates were shaken vigorously (300 rpm) for 5 min. The absorbance was measured at 570 nm with 630 nm as reference wavelength in a BIO-TEK ELx808 Absorbance Microplate Reader. DMSO was used as blank and doxorubicin (Sigma Aldrich) as positive control. Cell viability was calculated as percentage of control (cells incubated without compound). The CC50 was determined from the dose-response curve using TableCurve 2D V5.0 software (Systat Software, Palo Alto, CA, USA).

| Structure (SMILES) | IC50 [1] [µM] | ΔTm FdxT [2] [°C] | ΔTm FPf1T [3] [°C] | ΔTm FPf8T [4] [°C] | IC50 [5] [µM] | IC50 [6] [µM] | ΔTm F21T [7] [°C] | IC50 [8] [µM] | ΔTm FtrypBT [9] [°C] | CC50 at 72 h [10] [µM] |
| --- | --- | --- | --- | --- | --- | --- | --- | --- | --- | --- |
| CN(C)CCNCc1cc(-c2ccccc2)c2ccc3c(-c4ccccc4)cc(CNCCN(C)C)nc3c2n1 [Compound 1a, 2,9-Bis[(2-dimethylaminoethyl)aminomethyl]-4,7-diphenyl-1,10-phenanthroline] | 1 ± 0.34 | −0.3 | 1.8 | 1.6 | 0.67 ± 0.03 | > 12.5 | 1.8 | 1.8 ± 0.67 | 1.9 |  |
| CN(C)CCCNCc1cc(-c2ccccc2)c2ccc3c(-c4ccccc4)cc(CNCCCN(C)C)nc3c2n1 [Compound 1b, 2,9-Bis[(3-dimethylaminopropyl)aminomethyl]-4,7-diphenyl-1,10-phenanthroline] | 6.13 ± 1.63 | −0.3 | 7.4 | 7.9 | 0.57 ± 0.07 | > 12.5 | 12.8 | 21.2 ± 7.72 | 8.7 | 5.96 ± 0.2 |
| CN1CCN(CCNCc2cc(-c3ccccc3)c3ccc4c(-c5ccccc5)cc(CNCCN5CCN(C)CC5)nc4c3n2)CC1 [Compound 1e] | 0.92 ± 0.18 | −1.6 | 9.4 | 10.5 | 0.45 ± 0.03 | > 12.5 | 9.6 | 2.16 ± 0.32 | 8.0 | 10.5 ± 1.27 |
| CN1CCN(CCCNCc2cc(-c3ccccc3)c3ccc4c(-c5ccccc5)cc(CNCCCN5CCN(C)CC5)nc4c3n2)CC1 [Compound 1f] | 11.3 ± 2.93 | −0.5 | 8.8 | 10.9 | 0.97 ± 0.11 | > 12.5 | 10.8 | 21.5 ± 4.1 | 9.1 | 8.62 ± 0.5 |
| CN1CCN(CCCCNCc2cc(-c3ccccc3)c3ccc4c(-c5ccccc5)cc(CNCCCCN5CCN(C)CC5)nc4c3n2)CC1 [Compound 1g] | 2.48 ± 0.49 | −0.5 | 13.4 | 14.5 | 0.96 ± 0.13 | > 12.5 | 11.2 | 8.19 ± 3.53 | 12.2 | 16.8 ± 0.6 |
| c1ccc(-c2cc(CNCCN3CCOCC3)nc3c2ccc2c(-c4ccccc4)cc(CNCCN4CCOCC4)nc23)cc1 [Compound 1h] | 0.17 ± 0.05 | −0.9 | 1.8 | 1.9 | 0.22 ± 0.06 | 4.5 ± 2.2 | 2.0 | 0.67 ± 0.21 | 2.2 | 5.89 ± 0.53 |
| c1ccc(-c2cc(CNCCCN3CCOCC3)nc3c2ccc2c(-c4ccccc4)cc(CNCCCN4CCOCC4)nc23)cc1 [Compound 1i] | 0.04 ± 0.01 | −1.5 | 6.7 | 6.7 | 0.29 ± 0.02 | > 12.5 | 8.2 | 1.45 ± 0.58 | 6.0 | 6.29 ± 1.06 |
| c1ccc(-c2cc(CNCCN3CCCCC3)nc3c2ccc2c(-c4ccccc4)cc(CNCCN4CCCCC4)nc23)cc1 [Compound 1j] | 2.6 ± 0.55 | 0.2 | 5.6 | 7.3 | 0.2 ± 0.02 | 2.52 ± 0.2 | 7.7 | 1.59 ± 0.59 | 7.2 | 1.64 ± 0.14 |
| c1ccc(-c2cc(CNCCCN3CCCCC3)nc3c2ccc2c(-c4ccccc4)cc(CNCCCN4CCCCC4)nc23)cc1 [Compound 1k] | 1.65 ± 0.36 | 0.4 | 12.8 | 14.0 | 0.77 ± 0.1 | > 12.5 | 12.0 | 3.18 ± 0.68 | 8.3 | 4.29 ± 0.52 |
| c1ccc(-c2cc(CNCCc3cccnc3)nc3c2ccc2c(-c4ccccc4)cc(CNCCc4cccnc4)nc23)cc1 [Compound 1n] | 2.54 ± 0.36 | −0.3 | 2.9 | 5.3 | 0.43 ± 0.03 | 2.67 ± 0.8 | 4.6 | 0.71 ± 0.11 | 5.2 | 3.1 ± 0.19 |
| c1ccc(-c2cc(CNCCc3ccncc3)nc3c2ccc2c(-c4ccccc4)cc(CNCCc4ccncc4)nc23)cc1 [Compound 1o] | 1.87 ± 0.58 | −0.3 | 2.9 | 5.2 | 0.21 ± 0.01 | 2.69 ± 0.6 | 3.9 | 0.73 ± 0.19 | 5.3 | 19.1 ± 2.11 |
